In brackets after ≈: the same amount, converted by molar mass.
Experiments:
Test in all cases: in vitro antibacterial evaluation, MIC by broth dilution
Assay type in all cases: cell-based
[1] = test system: Escherichia coli
Outline: (§1)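 Test organisms, which included recent clinical isolates resistant to methicillin, penicillin and/or vancomycin, were inoculated at 5×10^5 CFU/mL into Muller-Hinton II […] containing antibiotic at 64-0.06 μg/mL. Minimum inhibitory concentrations were then read as the lowest level inhibiting growth.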

[2] = test system: Staphylococcus sp.; conditions: broth dilution, 18 hours at 35° C.; for MIC Staphylococcus aureus (GC 1131): strain GC 1131
Outline: as §1

[3] = test system: Streptococcus sp.; conditions: broth dilution, 18 hours at 35° C.
Outline: as §1

[4] = test system: Enterococcus sp.; conditions: broth dilution, 18 hours at 35° C.
Outline: as §1

- MIC Escherichia coli (ATCC 25922) ([1]; strain ATCC 25922, 18 hours at 35° C.): 64 µg/mL (≈ 45.1 µM)
- MIC Escherichia coli (GC 4559) ([1]; strain GC 4559, 18 hours at 35° C.): 64 µg/mL (≈ 45.1 µM)
- MIC Escherichia coli (GC 4560) ([1]; strain GC 4560, 18 hours at 35° C.): 0.5 µg/mL (≈ 0.353 µM)
- MIC Staphylococcus aureus (GC 1131) ([2]; inoculum 5×10^5 CFU/mL): 2 µg/mL (≈ 1.41 µM)
- MIC Staphylococcus aureus (ATCC 29213) ([2]; strain ATCC 29213): 2 µg/mL (≈ 1.41 µM)
- MIC Staphylococcus aureus (GC 1131) [2]: 2 µg/mL (≈ 1.41 µM)
- MIC Staphylococcus aureus (GC 3051) ([2]; strain GC 3051): 2 µg/mL (≈ 1.41 µM)
- MIC Staphylococcus aureus (GC 3053) ([2]; strain GC 3053): 2 µg/mL (≈ 1.41 µM)
- MIC Staphylococcus aureus (GC 4541) ([2]; strain GC 4541): 2 µg/mL (≈ 1.41 µM)
- MIC Staphylococcus aureus (GC 4542) ([2]; strain GC 4542): 2 µg/mL (≈ 1.41 µM)
- MIC Staphylococcus aureus-SMITH (GC 4543) ([2]; strain GC 4543): 1 µg/mL (≈ 0.705 µM)
- MIC Staphylococcus aureus (GC 4544) ([2]; strain GC 4544): 2 µg/mL (≈ 1.41 µM)
- MIC Staphylococcus aureus (GC 4545) ([2]; strain GC 4545): 2 µg/mL (≈ 1.41 µM)
- MIC Coagulase Negative Staphylococcus (GC 4547) ([2]; strain GC 4547): 4 µg/mL (≈ 2.82 µM)
- MIC Coagulase Negative Staphylococcus (GC 4548) ([2]; strain GC 4548): 1 µg/mL (≈ 0.705 µM)
- MIC Coagulase Negative Staphylococcus (GC 4549) ([2]; strain GC 4549): 1 µg/mL (≈ 0.705 µM)
- MIC Coagulase Negative Staphylococcus (GC 4551) ([2]; strain GC 4551): 2 µg/mL (≈ 1.41 µM)
- MIC Coagulase Negative Staphylococcus (GC 6257) ([2]; strain GC 6257): 2 µg/mL (≈ 1.41 µM)
- MIC Staphylococcus aureus-SMITH (GC 4543) ([2]; strain SMITH GC 4543): 1 µg/mL (≈ 0.705 µM)
- MIC Streptococcus agalactiae (GC 4564) ([3]; Streptococcus agalactiae (GC 4564)): 0.12 µg/mL (≈ 0.0846 µM)
- MIC Streptococcus pneumoniae (ATCC 6301) ([3]; Streptococcus pneumoniae (ATCC 6301)): <0.06 µg/mL
- MIC Streptococcus pneumoniae (GC 1894) ([3]; Streptococcus pneumoniae (GC 1894)): <0.06 µg/mL
- MIC Streptococcus pneumoniae (GC 4565) ([3]; Streptococcus pneumoniae (GC 4565)): <0.06 µg/mL
- MIC Streptococcus pyogenes (GC 4563) ([3]; Streptococcus pyogenes (GC 4563)): 0.25 µg/mL (≈ 0.176 µM)
- MIC Streptococcus pneumoniae (ATCC 6301) ([3]; strain ATCC 6301): <0.06 µg/mL
- MIC Streptococcus pneumoniae (GC 1894) ([3]; strain GC 1894): <0.06 µg/mL
- MIC Streptococcus pyogenes (GC 4563) ([3]; strain GC 4563): 0.25 µg/mL (≈ 0.176 µM)
- MIC Streptococcus agalactiae (GC 4564) ([3]; strain GC 4564): 0.12 µg/mL (≈ 0.0846 µM)
- MIC Streptococcus pneumoniae (GC 4565) ([3]; strain GC 4565): <0.06 µg/mL
- MIC Enterococcus avium (GC 4558) ([4]; Enterococcus avium (GC 4558)): 4 µg/mL (≈ 2.82 µM)
- MIC Enterococcus faecalis (ATCC 29212) ([4]; Enterococcus faecalis (ATCC 29212)): 4 µg/mL (≈ 2.82 µM)
- MIC Enterococcus faecalis (GC 2242) ([4]; Enterococcus faecalis (GC 2242)): 4 µg/mL (≈ 2.82 µM)
- MIC Enterococcus faecalis (GC 2691) ([4]; Enterococcus faecalis (GC 2691)): 8 µg/mL (≈ 5.64 µM)
- MIC Enterococcus faecalis (GC 3059) ([4]; Enterococcus faecalis (GC 3059)): 4 µg/mL (≈ 2.82 µM)
- MIC Enterococcus faecalis (GC 4552) ([4]; Enterococcus faecalis (GC 4552)): 4 µg/mL (≈ 2.82 µM)
- MIC Enterococcus faecalis (GC 4553) ([4]; Enterococcus faecalis (GC 4553)): 8 µg/mL (≈ 5.64 µM)
- MIC Enterococcus faecalis (GC 4554) ([4]; Enterococcus faecalis (GC 4554)): 8 µg/mL (≈ 5.64 µM)
- MIC Enterococcus faecalis (GC 6189) ([4]; Enterococcus faecalis (GC 6189)): 4 µg/mL (≈ 2.82 µM)
- MIC Enterococcus faecium (GC 2243) ([4]; Enterococcus faecium (GC 2243)): 4 µg/mL (≈ 2.82 µM)
- MIC Enterococcus faecium (GC 4556) ([4]; Enterococcus faecium (GC 4556)): 8 µg/mL (≈ 5.64 µM)
- MIC Enterococcus faecium (GC 4557) ([4]; Enterococcus faecium (GC 4557)): 2 µg/mL (≈ 1.41 µM)
- MIC Enterococcus faecalis (ATCC 29212) ([4]; strain ATCC 29212): 4 µg/mL (≈ 2.82 µM)
- MIC Enterococcus faecalis (GC 2242) ([4]; strain GC 2242): 4 µg/mL (≈ 2.82 µM)
- MIC Enterococcus faecium (GC 2243) ([4]; strain GC 2243): 4 µg/mL (≈ 2.82 µM)
- MIC Enterococcus faecalis (GC 2691) ([4]; strain GC 2691): 8 µg/mL (≈ 5.64 µM)
- MIC Enterococcus faecalis (GC 3059) ([4]; strain GC 3059): 4 µg/mL (≈ 2.82 µM)
- MIC Enterococcus faecalis (GC 4552) ([4]; strain GC 4552): 4 µg/mL (≈ 2.82 µM)
- MIC Enterococcus faecalis (GC 4553) ([4]; strain GC 4553): 8 µg/mL (≈ 5.64 µM)
- MIC Enterococcus faecalis (GC 4554) ([4]; strain GC 4554): 8 µg/mL (≈ 5.64 µM)
- MIC Enterococcus faecium (GC 4556) ([4]; strain GC 4556): 8 µg/mL (≈ 5.64 µM)
- MIC Enterococcus faecium (GC 4557) ([4]; strain GC 4557): 2 µg/mL (≈ 1.41 µM)
- MIC Enterococcus avium (GC 4558) ([4]; strain GC 4558): 4 µg/mL (≈ 2.82 µM)
- MIC Enterococcus faecalis (GC 6189) ([4]; strain GC 6189): 4 µg/mL (≈ 2.82 µM)
Structure (SMILES): CC(c1ccccc1)C1NC(=O)CNC(=O)C(CO)NC(=O)C(C(O)C2CNC(=N)N2C2OC(CO)C(O)C(O)C2O)NC(=O)C(C(O)C2CNC(=N)N2)NC(=O)C(Cc2ccc(OC3OC(CO)C(OC4OC5COC(c6cccc(Cl)c6)OC5C(O)C4O)C(O)C3O)cc2)NC1=O (stereo not drawn) [Example 138, Cyclo[glycyl-β-methylphenylalanyl-O-[4-O-[4,6-O-(3-chlorobenzylidene)hexopyranosyl]-hexopyranosyl]tyrosyl-3-(2-iminoimidazolidin-4-yl)seryl-3-(3-hexopyranosyl-2-iminoimidazolidin-4-yl)serylseryl]]
- MIC Staphylococcus haemolyticus (GC 4546) ([2]; strain GC 4546): 2 µg/mL (≈ 1.41 µM)

Reference: patent US6914045B2, “Glycopeptide antibiotics” (Wyeth Holdings Corporation, priority 2001, dated 2005)
